{
  "source": "patent US7504384B2",
  "about": "(priority 2000, dated 2009)",
  "key": {"HIV-1IIIB": {"test_system": "HIV-1IIIB", "experiment": "Inhibition of p24 production (HIV-1IIIB infection of MT-2 cells)", "assay_type": "cell-based", "conditions": "fourth day, p24 ELISA", "protocol": "Experiment 1.2: Inhibition of HIV-1IIIB Infection\nAfter 1 h, half of the culture medium was changed and replaced by fresh medium (with/without Lipid-conjugate) and after 24 h, the second half of the culture medium was changed and replaced by fresh medium (with/without Lipid-conjugate). On the fourth day after incubation at 37° C., 100 μl of culture supernatants were collected from each well and an equal volume of fresh medium was added to the wells. The collected supernatants were mixed with an equal volume of 5% (v/v) Triton X-100 and assayed for p24 antigen using an ELISA kit from Coulter Immunology (Hialeah, Fla.)."}, "HIV": {"test_system": "HIV", "experiment": "HIV infectivity of supernatant from whole blood mixed with HIV, on HT4-1022 cells", "assay_type": "cell-based", "conditions": "whole blood mixed with HIV and Lipid-conjugate (50 μM Compound XXIV, 30 μM Compound XXII) for 30 min; FIG. 1.1", "text": "The cells were then spun and the supernatant was examined for HIV infectivity on HT4-1022 cells as described by Margolis-Nunno et al. (Transfusion, 36, 743-750, 1996)."}, "[1]": {"test_system": "TNFα production by BAL macrophages", "experiment": "TNFα production by macrophages from BAL of OVA-sensitized asthmatic rats", "conditions": "compared with Naive and Dx-treated rats; p<0.001 vs Asthmatic"}, "mice": {"test_system": "mice", "experiment": "Acute (7 day) toxicity test", "assay_type": "in vivo", "conditions": "for Body weight (g) Final / Hematocrit % / RBC × 10^6 / WBC × 10^3: 7 day; for Body weight (g) Final / Hematocrit % / RBC × 10^6 / WBC × 10^3 / Body weight (g) Start: mean ± SEM; for toxicity: mortality rate, body weight, blood count, hematocrit, internal organ histology: mice, one week after a single i.p. dose of 1000, 500 or 200 mg/kg, versus untreated mice", "protocol": "[…] Mortality rate, body weight, blood count (red and white cells), hematocrit, and internal organ histology after sacrifice were assessed. These parameters were compared in Lipid-conjugate-treated and in control, untreated mice."}, "[2]": {"target": "V3 (third variable) domain of the HIV-1 envelope glycoprotein gp120", "experiment": "V3 antibody binding (ELISA)", "design": "species or system human immunodeficiency virus type 1 (HIV-1)", "conditions": "standard ELISA", "protocol": "V3 antibody binding is an assay that uses an antibody that binds to the V3 (third variable) domain of the human immunodeficiency virus type 1 (HIV-1) envelope glycoprotein gp120. Anti-V3 domain antibodies may provide an indicator of the presence and amount of HIV. V3 antibody binding was determined by standard ELISA."}, "[3]": {"test_system": "HIV-1IIIB-infected H9 cells and uninfected MT-2 cells", "experiment": "Inhibition of fusion between HIV-infected and uninfected cells", "assay_type": "cell-based", "conditions": "for IC50 (mean ± SD), inhibition of fusion / IC90 (mean ± SD), inhibition of fusion: H9/HIV-1 IIIB + MT-2 cells, 2 h; for IC50 / IC90: Table 1.4", "protocol": "In this assay, HIV-1IIIB-infected H9 cells were labeled with BCECF (2′,7′-bis(2-carboxyethyl)-5-6-carboxyfluorescein-acetoxymethyl-ester, Molecular Probes, Eugene, Oreg.) according to the manufacturer's instructions. BCECF-labeled H9/HIV-1 IIIB cells (10^4) were mixed with 1×10^5 uninfected MT-2 cells. After incubation in a 96-well plate at 37° C. for 2 h, the fused and unfused labeled cells were counted under an inverted fluorescence microscope at ×160 magnification. At least 200 BCECF-labeled cells were counted and the proportion of fused cells was determined Fusion tests were carried out in the presence and absence of graded quantities of the tested Lipid-conjugates. […] The IC50 represents the concentration of a drug that is required to achieve 50% inhibition. Similarly, the IC90 represents the concentration of a drug that is required to achieve 90% inhibition."}, "[4]": {"test_system": "OVA-sensitized asthmatic rats", "experiment": "OVA-induced broncho-constriction (Penh) in asthmatic rats", "assay_type": "in vivo, Brown Norway rats", "protocol": "Subjects: Inbred Brown Norway male rats (4 weeks old) obtained from Harlan, USA, were used in this study. The Hebrew University Animal Welfare Committee approved all protocols.\nIn mode 1, all groups (5 rats in each) were treated and challenged as described above on day 14, 16, 18 and 20, and pulmonary function (Penh) was assessed on day 20 before and 5 min after challenge (EAR).\nIn mode 2, each group (10 rats in each) were treated and challenged from day 14, every other day, until day 45. Pulmonary function (Penh) was assessed on day 20 before and 5 min and 8 h after challenge, corresponding to early and late asthmatic reaction (EAR and LAR, respectively).\nAssessment of broncho-constriction: Unrestrained conscious rats were placed in a whole-body plethysmograph (Buxco Electronics Inc., Troy, N.Y., USA) connected to a pneumotach (EMKA Technologies, Type 0000) at one end, and to a 10 ml bottle at the other end. The pneumotach was connected to a preamplifier (model MAX2270, Buxco Electronics). Analogue signals from the amplifier were converted to a digital signal by an AD card (LPM-16 National Instruments, Austin, Tex., USA). Broncho-constriction measures were expressed as the enhanced pause (Penh). Penh=(PEF/PIF)*((Te−Tr)/Tr), where PEF=Peak Expiratory Flow, PIF=Peak Inspiratory Flow, Te=Expiratory Time, Tr=Relaxation Time=time of the pressure decay to 36% of total box pressure during expiration."}, "[5]": {"test_system": "Respiratory syncytial virus", "assay_type": "cell-based, strain A2"}, "[6]": {"test_system": "Influenza A (H1N1 strain) virus", "assay_type": "cell-based, Influenza type A, A/New Caledonia/20/99 (H1N1)"}, "[7]": {"test_system": "Respiratory syncytial virus", "assay_type": "cell-based, strain A2", "remark": "listed apart in the source"}, "Punta Toro virus": {"test_system": "Punta Toro virus", "assay_type": "cell-based, strain Adames"}},
  "note": "Several values for one entry are separate records, joined by “and”; a condition that tells them apart may be missing. Equal values may be shown once. Read-outs that look alike come from different tables or passages of the source.",
  "data": [
    {"substance": "dipalmitoyl-PE conjugated to HA [Compound XXII]", "values": [
      {"measurement": "IC50", "setting": "HIV-1IIIB", "result": 3110, "unit": "nM"},
      {"measurement": "IC50 (mean ± SD), inhibition of p24 production", "setting": "HIV-1IIIB", "result": "207.0 ± 18.0", "unit": "µg/mL"},
      {"measurement": "IC90", "setting": "HIV-1IIIB", "result": 5.76, "unit": "µM"},
      {"measurement": "IC90 (mean ± SD), inhibition of p24 production", "setting": "HIV-1IIIB", "result": "384.3 ± 79.3", "unit": "µg/mL"},
      {"measurement": "HIV infectivity", "setting": "HIV", "result": "prevent HIV infection of cells"},
      {"measurement": "TNFα production, BAL macrophages", "setting": "[1]", "result": "no significant differences"},
      {"measurement": "Body weight (g) Final", "setting": "mice; 250 mg/kg body weight", "result": "23.1 ± 0.6", "unit": "g"},
      {"measurement": "Hematocrit %", "setting": "mice; 250 mg/kg body weight", "result": "43.3 ± 0.7", "unit": "%"},
      {"measurement": "RBC × 10^6", "setting": "mice; 250 mg/kg body weight", "result": "11.4 ± 0.1 × 10^6"},
      {"measurement": "WBC × 10^3", "setting": "mice; 250 mg/kg body weight", "result": "7.7 ± 0.2 × 10^3"},
      {"measurement": "Body weight (g) Start", "setting": "mice; 250 mg/kg body weight", "result": "22.1 ± 0.4", "unit": "g"},
      {"measurement": "Body weight (g) Final", "setting": "mice; 500 mg/kg body weight", "result": "22.3 ± 0.4", "unit": "g"},
      {"measurement": "Hematocrit %", "setting": "mice; 500 mg/kg body weight", "result": "44.7 ± 2.3", "unit": "%"},
      {"measurement": "RBC × 10^6", "setting": "mice; 500 mg/kg body weight", "result": "11.5 ± 0.3 × 10^6"},
      {"measurement": "WBC × 10^3", "setting": "mice; 500 mg/kg body weight", "result": "8.1 ± 1.3 × 10^3"},
      {"measurement": "Body weight (g) Start", "setting": "mice; 500 mg/kg body weight", "result": "21.4 ± 0.3", "unit": "g"},
      {"measurement": "Body weight (g) Final", "setting": "mice; 1000 mg/kg body weight", "result": "22.1 ± 0.2", "unit": "g"},
      {"measurement": "Hematocrit %", "setting": "mice; 1000 mg/kg body weight", "result": "40.3 ± 0.7", "unit": "%"},
      {"measurement": "RBC × 10^6", "setting": "mice; 1000 mg/kg body weight", "result": "10.9 ± 0.4 × 10^6"},
      {"measurement": "WBC × 10^3", "setting": "mice; 1000 mg/kg body weight", "result": "7.4 ± 0.6 × 10^3"},
      {"measurement": "Body weight (g) Start", "setting": "mice; 1000 mg/kg body weight", "result": "21.7 ± 0.2", "unit": "g"},
      {"measurement": "toxicity: mortality rate, body weight, blood count, hematocrit, internal organ histology", "setting": "mice", "result": "did not alter the parameters"},
      {"measurement": "IC50", "setting": "[2]", "result": 45, "unit": "µM"},
      {"measurement": "IC50 (mean ± SD), inhibition of fusion", "setting": "[3]", "result": ">500", "unit": "µg/mL"},
      {"measurement": "IC90 (mean ± SD), inhibition of fusion", "setting": "[3]", "result": ">500", "unit": "µg/mL"},
      {"measurement": "IC50", "setting": "[3]", "result": "> 7500", "unit": "nM"},
      {"measurement": "IC90", "setting": "[3]", "result": "> 7500", "unit": "nM"},
      {"measurement": "broncho-constriction (percent change of Penh), early asthmatic reaction (EAR)", "setting": "[4]; aerosol inhalation, 5 min after challenge, compared with Naïve or Dx-treated groups, p<0.01 vs Asthmatic", "result": "no significant difference"},
      {"measurement": "broncho-constriction (percent change of Penh), late asthmatic reaction (LAR)", "setting": "[4]; aerosol inhalation, 8 h after challenge, compared with Naïve or Dx-treated groups, p<0.01 vs Asthmatic", "result": "no significant difference"},
      {"measurement": "allergen-induced broncho-constriction (Penh), inhaled before OVA challenge", "setting": "[4]; already asthmatic rats, nebulized 1 mg/ml for 5 minutes, 30 minutes before challenge", "result": "effective in preventing allergen-induced broncho-constriction"},
      {"measurement": "broncho-constriction (Penh), inhaled after OVA challenge", "setting": "[4]; asthmatic rats, nebulized 1 mg/ml for 5 minutes, thirty minutes after challenge", "result": "reverse broncho-constriction"}
    ]},
    {"substance": "dipalmitoyl-phosphatidyl-ethanolamine conjugated to heparin [Compound XXIV]", "values": [
      {"measurement": "EC50", "setting": "[5]; low concentrations, Neutral Red Uptake Assay, Respiratory Syncytial A", "result": ">100", "unit": "µg/mL"},
      {"measurement": "activity vs RSV by neutral red assay", "setting": "[5]; lower range of doses", "result": "not active"},
      {"measurement": "IC50", "setting": "HIV-1IIIB", "result": 700, "unit": "nM"},
      {"measurement": "IC50 (mean ± SD), inhibition of p24 production", "setting": "HIV-1IIIB", "result": "10.0 ± 2.3", "unit": "µg/mL"},
      {"measurement": "IC90", "setting": "HIV-1IIIB", "result": 1.35, "unit": "µM"},
      {"measurement": "IC90 (mean ± SD), inhibition of p24 production", "setting": "HIV-1IIIB", "result": "19.3 ± 4.5", "unit": "µg/mL"},
      {"measurement": "SI (IC50/EC50)", "setting": "[6]", "result": "20 and 11"},
      {"measurement": "EC50", "setting": "[6]; high concentration, Visual Observation Assay, Influenza A (H1N1 strain)", "result": 400, "unit": "µg/mL"},
      {"measurement": "HIV infectivity", "setting": "HIV", "result": "prevent HIV infection of cells"},
      {"measurement": "EC50", "setting": "[7]", "result": 4, "unit": "µg/mL"},
      {"measurement": "SI (IC50/EC50)", "setting": "Punta Toro virus", "result": 0},
      {"measurement": "EC50", "setting": "Punta Toro virus; low concentrations, Visual Observation Assay, Punta Toro A", "result": ">100", "unit": "µg/mL"},
      {"measurement": "virus inhibitory effect against Punta Toro virus", "setting": "Punta Toro virus; lower range of doses, at the concentrations tested", "result": "did not display a virus inhibitory effect"},
      {"measurement": "toxicity: mortality rate, body weight, blood count, hematocrit, internal organ histology", "setting": "mice", "result": "did not alter the parameters"},
      {"measurement": "IC50", "setting": "[2]", "result": 140, "unit": "µM"},
      {"measurement": "IC50 (mean ± SD), inhibition of fusion", "setting": "[3]", "result": "7.9 ± 1.3", "unit": "µg/mL"},
      {"measurement": "IC90 (mean ± SD), inhibition of fusion", "setting": "[3]", "result": "15.3 ± 3.9", "unit": "µg/mL"},
      {"measurement": "IC50", "setting": "[3]", "result": 550, "unit": "nM"},
      {"measurement": "IC90", "setting": "[3]", "result": 1070, "unit": "nM"}
    ]}
  ]
}
